Values of other authors in paper PMC8371712 (ACS chemical biology, 2021).

Assays:
[1] = tested on: hERG potassium ion channel; details: margin of safety statement; no reference given
[2] = tested on: release of dopamine in the corpus striatum; details: no reference given
[3] = tested on: aspartate aminotransferase; details: margin of safety statement; no reference given
[4] = tested on: various microsomal cytochrome P450 enzymes; details: margin of safety statement; no reference given
[5] = no reference given
alanine aminotransferase = details: margin of safety statement; no reference given
[6] = tested on: Cerep SpectrumScreen panel of 176 pharmacological targets

In the case of `N[C@H]1C=C(C(=O)O)CC1=C(F)F` [OV329, (S)-3-amino-(difluoromethylenyl)cyclopent-1-ene-1-carboxylic acid], the “activity against hERG potassium ion channel” value [1] is listed as “lack of activity”, the “release of dopamine in the corpus striatum” value [2] is listed as “blocks the release of dopamine” and the “activity against aspartate aminotransferase” value [3] is listed as “lack of activity”. For the same compound, the “activity against microsomal cytochrome P450 enzymes” value [4] was “lack of activity”, the Ames test [5] was “negative” and the “activity against alanine aminotransferase” value (alanine aminotransferase) was “lack of activity”. For the same compound, the “activity in Cerep SpectrumScreen panel” value [6] was “lack of activity”.
